We go through 7 compounds from patent publication US10556943B2, “HLA-DR binding peptides and their uses” (priority 2007, dated 2020).

Like-named read-outs stand apart in the source and are kept apart here.

For one experiment, the target named is T1, purified HLA DRB1*0401 (Homo sapiens, UniProt P01903+P01911, A100K/A169T/F76Y/I96L/K127E/L162R/M171V/N62H/P40V/Q125Y/R42H/S133A/S149N/S66Y/V115G/V209L/W38E).
T1 construct: MHC molecules utilized were purified from EBV transformed homozygous cell lines or single MHC allele transfected 721.221, C1R, or fibroblast lines; made in house; host or cells: EBV transformed homozygous cell lines or single MHC allele transfected 721.221, C1R, or fibroblast lines
The experiment in a line: HLA-DR radioligand binding inhibition assay, DRB1*0401. Particulars: read-out: IC50 to purified HLA DRB1*0401; purified HLA DRB1*0401. On the procedure: (§1) Fifteen distinct HLA-DR molecules were used in quantitative assays to measure the binding of peptides to solubilized HLA-DR molecules. […] Briefly, columns of inactivated Sepharose CL4B and Protein A Sepharose were used as pre-columns. HLA-DR molecules were captured by passage of lysates over LB3.1 monoclonal antibody (anti-HLA-DRA) columns. Antibody columns were washed with 10 mM Tris-HCL, pH8.0 with 1% (v/v) NP-40, followed by PBS containing 0.4% (w/v) n-octylglucoside. […] The pH was reduced to 8.0 and the eluates were concentrated by centrifugation in Centriprep 30 concentrators at 2000 rpm (Amicon, Beverly, Mass.).
(§2) Briefly, 1-10 nM of radiolabeled peptide was co-incubated for 2 days at either room temperature or 37° C. with 1 μM to 1 nM purified HLA-DR molecules in the presence of a cocktail of protease inhibitors. Assays were performed at various pH conditions, ranging from pH 4 to pH 7. […] After incubation, the percentage of HLA-DR-bound radioactivity is determined by capturing HLA-DR/peptide complexes on Optiplates (Packard Instruments, Meriden, Conn.) coated with the LB3.1 antibody and determining bound counts per minute using the TopCount microscintillation counter (Packard Instruments). […] Competitor peptides are tested in 2-4 complete, independent experiments, at concentrations ranging from 30 μg/mL to 300 pg/mL.

In the next experiment the target is T2, purified HLA DRB1*0405 (Homo sapiens, UniProt P01903+P01911, A100R/A169T/D86S/F76Y/I96L/K127E/L162R/M171V/N62H/P40V/Q125Y/R42H/S133A/S149N/S66Y/V115G/V209L/W38E).
T2 construct: MHC molecules utilized were purified from EBV transformed homozygous cell lines or single MHC allele transfected 721.221, C1R, or fibroblast lines; made in house; host or cells: EBV transformed homozygous cell lines or single MHC allele transfected 721.221, C1R, or fibroblast lines
The experiment in a line: HLA-DR radioligand binding inhibition assay, DRB1*0405. On the procedure:
as §1, §2

The target of the next experiment is T3, purified HLA DRB1*0404 (Homo sapiens, UniProt P01903+P01911, A100R/A169T/F76Y/I96L/K127E/L162R/M171V/N62H/P40V/Q125Y/R42H/S133A/S149N/S66Y/V209L/W38E).
T3 construct: MHC molecules utilized were purified from EBV transformed homozygous cell lines or single MHC allele transfected 721.221, C1R, or fibroblast lines; made in house; host or cells: EBV transformed homozygous cell lines or single MHC allele transfected 721.221, C1R, or fibroblast lines
The experiment in a line: HLA-DR radioligand binding inhibition assay, DRB1*0404. On the procedure:
as §1, §2

Another experiment has as its target T4, purified HLA DRB5*0101 (Homo sapiens, UniProt P01903+Q30154).
T4 construct: MHC molecules utilized were purified from EBV transformed homozygous cell lines or single MHC allele transfected 721.221, C1R, or fibroblast lines; made in house; host or cells: EBV transformed homozygous cell lines or single MHC allele transfected 721.221, C1R, or fibroblast lines
The experiment in a line: HLA-DR radioligand binding inhibition assay, DRB5*0101. On the procedure: as §1, §2

For another experiment, the target named is T5, purified HLA DRB1*1101 (Homo sapiens, UniProt P01903+P01911, A100R/A169T/A87E/I96F/K41T/L162R/M171V/P40S/Q125H/Q178H/Q39Y/Q99D/R42S/S66Y/T262R/V115G/W38E).
T5 construct: MHC molecules utilized were purified from EBV transformed homozygous cell lines or single MHC allele transfected 721.221, C1R, or fibroblast lines; made in house; host or cells: EBV transformed homozygous cell lines or single MHC allele transfected 721.221, C1R, or fibroblast lines
T5 sequence (P01903 26-254, other chains not shown): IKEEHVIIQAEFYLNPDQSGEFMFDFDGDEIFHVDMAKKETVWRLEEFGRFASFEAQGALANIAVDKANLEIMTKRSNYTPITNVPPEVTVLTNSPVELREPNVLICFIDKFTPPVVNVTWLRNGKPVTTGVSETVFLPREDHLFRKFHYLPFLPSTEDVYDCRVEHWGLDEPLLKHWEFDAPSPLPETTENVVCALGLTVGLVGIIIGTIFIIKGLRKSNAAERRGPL
The experiment in a line: HLA-DR radioligand binding inhibition assay, DRB1*1101. On the procedure:
as §1, §2

What is called IC50 is the concentration that inhibits the measured activity by half.

`CC(C)C[C@H](NC(=O)[C@@H](NC(=O)[C@H](CS)NC(=O)[C@H](CO)NC(=O)CNC(=O)[C@@H](NC(=O)[C@H](CC(=O)O)NC(=O)[C@@H](NC(=O)[C@@H](N)CO)[C@@H](C)O)C(C)C)[C@@H](C)O)C(=O)N[C@H](C(=O)N[C@@H](CS)C(=O)N1CCC[C@H]1C(=O)N[C@@H](CC(C)C)C(=O)N[C@@H](Cc1c[nH]cn1)C(=O)N[C@@H](CC(N)=O)C(=O)O)C(C)C` [Peptide 9019.0043]: the half-inhibitory concentration (IC50) on purified HLA DRB1*0401 is greater than 20 µM.
For the compound `CSCC[C@H](NC(=O)[C@H](CCCNC(=N)N)NC(=O)[C@H](C)NC(=O)CN)C(=O)N1CCC[C@H]1C(=O)N[C@@H](CS)C(=O)N[C@@H](C)C(=O)N[C@@H](CCC(=O)O)C(=O)N[C@@H](CC(C)C)C(=O)N[C@H](C(=O)N[C@@H](CCCNC(=N)N)C(=O)N[C@@H](CCC(=O)O)C(=O)N1CCC[C@H]1C(=O)NCC(=O)N[C@@H](CS)C(=O)O)C(C)C` [Peptide 9019.0181], the half-inhibitory concentration (IC50) at purified HLA DRB1*0405 (read-out: IC50 to purified HLA DRB1*0405, purified HLA DRB1*0405) was greater than 20 µM; at purified HLA DRB1*0404 (read-out: IC50 to purified HLA DRB1*0404, purified HLA DRB1*0404) it was 13.1 µM.
`CC[C@H](C)[C@H](NC(=O)[C@@H](NC(=O)[C@H](Cc1ccc(O)cc1)NC(=O)CN)C(C)C)C(=O)NCC(=O)N[C@H](C(=O)N[C@@H](CCC(N)=O)C(=O)N[C@@H](CCC(N)=O)C(=O)N[C@@H](C)C(=O)N[C@H](C(=O)N1CCC[C@H]1C(=O)NCC(=O)N1CCC[C@H]1C(=O)N[C@@H](C)C(=O)N[C@@H](Cc1ccc(O)cc1)C(=O)O)[C@@H](C)O)[C@@H](C)O` [Peptide 9019.0110] gave a concentration for half-maximal inhibition (IC50) at purified HLA DRB5*0101 of 10.2 µM.
On to `CC[C@H](C)[C@H](NC(=O)[C@H](CCCCN)NC(=O)[C@H](CCCNC(=N)N)NC(=O)[C@@H](N)CCSC)C(=O)N[C@H](C(=O)N[C@@H](C)C(=O)N[C@H](C(=O)N[C@@H](Cc1c[nH]c2ccccc12)C(=O)N[C@@H](CCSC)C(=O)N[C@@H](CC(C)C)C(=O)N[C@@H](CCC(=O)O)C(=O)N[C@H](C(=O)N[C@@H](CS)C(=O)N[C@@H](CCC(=O)O)C(=O)N[C@@H](CCC(=O)O)C(=O)O)C(C)C)[C@@H](C)O)C(C)C` [Peptide 9019.0151], for which the IC50 was greater than 20 µM at purified HLA DRB1*1101, 17 µM on purified HLA DRB5*0101 and greater than 20 µM at purified HLA DRB1*0404.
The compound `CC(C)C[C@H](NC(=O)[C@@H]1CCCN1C(=O)[C@H](CO)NC(=O)[C@@H]1CCCN1C(=O)[C@H](CC(=O)O)NC(=O)[C@H](Cc1c[nH]cn1)NC(=O)[C@@H](NC(=O)[C@@H]1CCCN1C(=O)[C@H](CC(C)C)NC(=O)[C@H](CO)NC(=O)[C@H](CCC(N)=O)NC(=O)[C@H](CC(C)C)NC(=O)CNC(=O)[C@H](CCCCN)NC(=O)[C@H](C)N)[C@@H](C)O)C(=O)O` [Peptide 9019.0098] came in with a half-maximal inhibitory concentration (IC50) on purified HLA DRB5*0101 greater than 20 µM.
With `CC[C@H](C)[C@H](NC(=O)[C@H](CCCCN)NC(=O)[C@H](CCC(N)=O)NC(=O)[C@@H](N)CCC(N)=O)C(=O)N[C@@H](CCCNC(=N)N)C(=O)N[C@@H](CCCCN)C(=O)N[C@@H](Cc1ccc(O)cc1)C(=O)N[C@H](C(=O)N[C@@H](CCSC)C(=O)N[C@@H](CCCNC(=N)N)C(=O)N[C@@H](CCCNC(=N)N)C(=O)N[C@@H](CC(C)C)C(=O)N[C@@H](CC(C)C)C(=O)N[C@@H](CCC(N)=O)C(=O)N[C@@H](CCC(=O)O)C(=O)O)[C@@H](C)O` [Peptide 9019.0070], at purified HLA DRB1*0405, the IC50 was greater than 20 µM.
Same read-out and setting: the value for `CC(C)C[C@H](NC(=O)[C@H](CC(=O)O)NC(=O)[C@H](CCCNC(=N)N)NC(=O)[C@@H](N)Cc1c[nH]cn1)C(=O)N[C@@H](C)C(=O)N[C@@H](C)C(=O)N[C@@H](CCCNC(=N)N)C(=O)N[C@@H](CC(N)=O)C(=O)N[C@H](C(=O)N[C@@H](CC(C)C)C(=O)N[C@H](C(=O)N[C@@H](CCCCN)C(=O)N[C@@H](CO)C(=O)N1CCC[C@H]1C(=O)N[C@@H](CC(N)=O)C(=O)O)C(C)C)C(C)C` [Peptide 9019.0085] was 11.2 µM.
